Assay results from patent US20250011368A1, “DLL3 TARGETING PEPTIDES AND CONSTRUCTS THEREOF” (MARIANA ONCOLOGY INC., priority 2023, published 2025).
Numbered stars: 1 amine (or outer) side, 2 acyl side, 3 side chain; on linkers, the order of the positions; unused ones are H or OH. Bridge positions count the residues as written; N and C are the ends. Square brackets hold non-standard residues; d marks the D form. Peptide text beside a SMILES is read from it. * marks the point of attachment. Ala(piperidin-4-yl) = O=C([C@H](CC1CCN([*:3])CC1)N[*:1])[*:2]; DOTA = O=C(O)CN1CCN(CC(=O)O)CCN(CC(=O)*)CCN(CC(=O)O)CC1; Ala(morpholin-4-yl) = N[C@@H](CN1CCOCC1)C(=O)O; 2Nal = N[C@@H](Cc1ccc2ccccc2c1)C(=O)O; 3Pal = N[C@@H](Cc1cccnc1)C(=O)O; 4Pal = N[C@@H](Cc1ccncc1)C(=O)O

Columns and labels:
CT26.DLL3 cells [1] = assay: Cell binding (total uptake) of [177Lu]Lu-test peptide, CT26.DLL3 cells; format: cell-based; conditions: 1 hour at 37° C.
Method: (§1) [^177Lu]LuCl3 was received from venders in HCl solution. For every mCi of [^177Lu]LuCl3 added to the reaction vial (1.5 mL Eppendorf vial), ammonium acetate buffer (0.2 M, pH 4.9, 100 μL, containing 1% w/v ascorbic acid and 6% v/v ethanol) and peptide conjugate (1 nmol). A peptide conjugate of the present disclosure is also referred to herein as a “chelator-peptide”. The pH of the solution was determined to be approximately 5 by using pH strips. The reaction vial was incubated at 80° C., 700 RPM for 17-20 minutes. A sample from the reaction was analyzed by RP-HPLC using an Agilent Infinity II 1260 HPLC to determine reaction completion and radiochemical purity of [^177Lu]Lu-chelator-peptide. HPLC conditions: Waters XBridge BEH C18 Column, 130 Å, 3.5 um, 4.6 mm×250 mm; mobile phase: Solvent A=water (with 0.1% formic acid), solvent B=acetonitrile (with 0.1% formic acid). Gradients: 25-45% B in 10 minutes, 45-65% B in 12 minutes, 65-90% in 6 minutes at a flow rate of 0.5 mL/minute. Required amounts of the product was formulated in 1% PBSA for cell studies.
(§2) The study was conducted using SHP-77, CT26.WT, and CT26.DLL3 cells (Table 7) Adherent cell studies: The cells were cultured in appropriate culture media (20 mL) in tissue culture treated T150 flasks at 37° C. and 5% CO2. Adherent cells were detached (60-70% confluent) using 5 mL Versene at 37° C. for 3 minutes. After confirming the viability using countess and count of detached cells using Trypan blue, the cells were centrifuged at 4° C. for 5 minutes (1,000 rpm). The cell pellet obtained was washed once with PBS and resuspended in 1% PBSA to obtain the desired cell concentration (5-25 million cells/mL).
(§3) Cell numbers used for the assay were in the range of 5 million cells/condition −25 million cells/condition.
(§4) Total uptake: Cells were incubated with 300 μL (0.8 μCi) of the incubation buffer (containing radiolabeled peptide [^177Lu] Lu-test peptide) for 1 hour at 37° C. (Table 8). Post incubation, the cells were pelleted and washed 2 times using cold PBS+1% BSA. The supernatant and washes were combined and counted together as “unbound fraction” in a gamma counter. The cells were then resuspended in 300 μL of 1% PBS+1% BSA and counted in the gamma counter as “bound fraction”.
(§5) In these Tables, “A” represents %≤25; “B” represents 25<%≤50; “C” represents %>50.

CT26.DLL3 cells [2] = assay: Internalization (out of bound fraction) of [177Lu]Lu-test peptide, CT26.DLL3 cells; format: cell-based; conditions: 1 hour at 37° C., glycine pH 2.5 wash
Method: as §1, §2, §3, §4
Internalization: The resuspended cells in 300 μl of 1% PBSA and counted in the gamma counter as “bound fraction” were collected in 1.5 mL Eppendorf tube and pelleted. The pelleted cells were incubated with 300 μl of 50 mM Glycine pH=2.5 for 3 minutes and then pelleted discarding the supernatant. This process was repeated one more time. The pelleted cells were washed with 300 μl of cold 1% PBSA and then resuspended in 300 μl 0.3M NaOH. This was counted in the gamma counter as “internalized fraction”.
as §5

human DLL3 = target: T1, human DLL3 (Homo sapiens, UniProt Q9NYJ7); assay: Affinity determination by Surface Plasmon Resonance (SPR); format: binding; conditions: 25° C., biotinylated human DLL3 immobilized on streptavidin sensor chip, 1:1 binding model; read-out: SPR KD
T1 sequence (Q9NYJ7 27-618): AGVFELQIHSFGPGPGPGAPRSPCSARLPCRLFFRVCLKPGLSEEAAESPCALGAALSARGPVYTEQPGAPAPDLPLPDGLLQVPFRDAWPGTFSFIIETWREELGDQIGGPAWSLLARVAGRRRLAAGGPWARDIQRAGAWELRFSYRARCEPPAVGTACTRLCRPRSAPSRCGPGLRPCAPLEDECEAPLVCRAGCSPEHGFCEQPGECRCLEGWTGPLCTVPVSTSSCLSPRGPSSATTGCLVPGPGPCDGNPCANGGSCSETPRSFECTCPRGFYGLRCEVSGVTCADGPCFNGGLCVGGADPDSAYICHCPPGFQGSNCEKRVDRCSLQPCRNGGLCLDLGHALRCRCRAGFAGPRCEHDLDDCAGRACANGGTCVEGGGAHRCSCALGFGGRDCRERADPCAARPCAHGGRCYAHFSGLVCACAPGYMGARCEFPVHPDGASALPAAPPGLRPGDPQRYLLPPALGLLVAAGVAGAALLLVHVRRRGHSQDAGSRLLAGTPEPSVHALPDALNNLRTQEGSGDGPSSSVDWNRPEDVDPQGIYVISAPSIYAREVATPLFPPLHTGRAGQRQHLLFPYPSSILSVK
Procedure, shortened: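 Kinetic and affinity constants were derived by fitting sensorgrams to a 1:1 binding model. Graded compound concentrations flowed at 100 μL/minute in 20 mM phosphate running buffer with 2% DMSO over streptavidin-immobilized biotinylated human DLL3, reference-subtracted.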

SHP-77 tumors = assay: Ex vivo biodistribution of radiolabeled peptides in nude mice bearing SHP-77 tumors; conditions: [177Lu]Lu labelling, nude mice bearing SHP-77 tumors (n = 3), 24 hours post-injection
Method: Mice were intravenously injected (via the lateral tail vein) with a bolus dose of the radiolabeled peptides for ex vivo biodistribution studies when tumor volumes were in range of 200-400 mm^3 for xenograft mice and when age of the mice was 5-7 weeks for tumor naïve mice studies. To assess the amount of radionuclide injected into individual mice the syringe was assayed in a dose calibrator before and after injection for [^177Lu]Lu-peptide.
Mice were euthanized at pre-determined time points and selected tissues were resected and collected into pre-weighed tubes. The tubes were then reweighed post resection, the difference giving the weight of each tissue. Radioactivity in each tissue was measured using a gamma counter. Counts were decay corrected to the time of injection and percentage of injected activity per gram (% IA/g) was calculated for each tissue based on the injected activity into each individual mouse. Injected activity was converted to counts based on the sensitivity of the gamma counter. The counts in tissue were then converted to the percentage of injected activity and this was divided by the mass of tissue to give % IA/g.

| SMILES | % Binding (CT26.DLL3 cells [1]) | % Internalization (out of bound fraction) (CT26.DLL3 cells [2]) | Kd (human DLL3) [nM] | kidney uptake (% IA/g) (SHP-77 tumors) | tumor uptake (% IA/g) (SHP-77 tumors) |
| --- | --- | --- | --- | --- | --- |
| CC[C@H](C)[C@H](NC(=O)[C@@H](NC(=O)[C@H](Cc1c[nH]c2ccccc12)NC(C)=O)[C@@H](C)O)C(=O)N[C@H]1CSSC[C@@H](C(=O)N[C@@H](Cc2c[nH]c3ccccc23)C(=O)N2CCC[C@H]2C(=O)N[C@H](CCCCNC(=O)CN2CCN(CC(=O)O)CCN(CC(=O)O)CCN(CC(=O)O)CC2)C(N)=O)NC(=O)[C@H](CC(N)=O)NC(=O)[C@H](Cc2cnc[nH]2)NC(=O)[C@H](Cc2ccc3ccccc3c2)NC(=O)[C@H](CC(N)=O)NC(=O)[C@H](CC(N)=O)NC1=O [compound 211, Ac-W-T-I-C(3)-N-N-(2Nal)-H-(Asn)-C(3)-W-P-[D-Lys(DOTA)]-NH2] (Ac-WTICNN[2Nal]HNCWP[dK](DOTA)-NH2; disulfide 4-10) | A (%≤25) | B (25<%≤50) | < 1 | D (% IA/g > 10 in kidney) | A (0 < % IA/g ≤ 5 in tumor) |
| CC[C@H](C)[C@H](NC(=O)[C@@H](NC(=O)[C@H](Cc1c[nH]c2ccccc12)NC(C)=O)[C@@H](C)O)C(=O)N[C@H]1CSSC[C@@H](C(=O)N[C@@H](Cc2c[nH]c3ccccc23)C(=O)N2CCC[C@H]2C(=O)N[C@H](CCCCNC(=O)CN2CCN(CC(=O)O)CCN(CC(=O)O)CCN(CC(=O)O)CC2)C(N)=O)NC(=O)[C@H](CC(=O)O)NC(=O)[C@H](CCCCN)NC(=O)[C@H](Cc2ccc3ccccc3c2)NC(=O)[C@H](CC(N)=O)NC(=O)[C@H](CC(N)=O)NC1=O [compound 237, Ac-W-T-I-C(3)-N-N-(2Nal)-K-D-C(3)-W-P-[D-Lys(DOTA)]-NH2] (Ac-WTICNN[2Nal]KDCWP[dK](DOTA)-NH2; disulfide 4-10) | A (%≤25) | – | < 1 | – | – |
| CC[C@H](C)[C@H](NC(=O)[C@@H](NC(=O)[C@H](Cc1c[nH]c2ccccc12)NC(C)=O)[C@@H](C)O)C(=O)N[C@H]1CSSC[C@@H](C(=O)N[C@@H](Cc2c[nH]c3ccccc23)C(=O)N2CCC[C@H]2C(=O)N[C@H](CCCCNC(=O)CN2CCN(CC(=O)O)CCN(CC(=O)O)CCN(CC(=O)O)CC2)C(N)=O)NC(=O)[C@H](CC(=O)O)NC(=O)[C@H](Cc2cnc[nH]2)NC(=O)[C@H](Cc2ccc3ccccc3c2)NC(=O)[C@H](CC(N)=O)NC(=O)[C@H](CCCCN)NC1=O [compound 259] (Ac-WTICKN[2Nal]HDCWP[dK](DOTA)-NH2; disulfide 4-10) | B (25<%≤50) | – | < 1 | – | – |
| CC[C@H](C)[C@H](NC(=O)[C@@H](NC(=O)[C@H](Cc1c[nH]c2ccccc12)NC(C)=O)[C@@H](C)O)C(=O)N[C@H]1CSSC[C@@H](C(=O)N[C@@H](Cc2c[nH]c3ccccc23)C(=O)N2CCC[C@H]2C(=O)N[C@H](CCCCNC(=O)CN2CCN(CC(=O)O)CCN(CC(=O)O)CCN(CC(=O)O)CC2)C(N)=O)NC(=O)[C@H](CC(=O)O)NC(=O)[C@H](Cc2cnc[nH]2)NC(=O)[C@H](Cc2ccc3ccccc3c2)NC(=O)[C@H](CC(N)=O)NC(=O)[C@H](CC2CCNCC2)NC1=O [compound 260, Ac-W-T-I-C(3)-[3-(4-piperidinyl)-Ala]-N-(2Nal)-H-D-C(3)-W-P-[D-Lys(DOTA)]-NH2] (Ac-WTIC[Ala(piperidin-4-yl)]N[2Nal]HDCWP[dK](DOTA)-NH2; disulfide 4-10) | B (25<%≤50) | – | < 1 | C (0 < % IA/g ≤ 10 in kidney) | A (0 < % IA/g ≤ 5 in tumor) |
| CC[C@H](C)[C@H](NC(=O)[C@@H](NC(=O)[C@H](Cc1c[nH]c2ccccc12)NC(C)=O)[C@@H](C)O)C(=O)N[C@H]1CSSC[C@@H](C(=O)N[C@@H](Cc2c[nH]c3ccccc23)C(=O)N2CCC[C@H]2C(=O)N[C@H](CCCCNC(=O)CN2CCN(CC(=O)O)CCN(CC(=O)O)CCN(CC(=O)O)CC2)C(N)=O)NC(=O)[C@H](CC(=O)O)NC(=O)[C@H](Cc2cnc[nH]2)NC(=O)[C@H](Cc2ccc3ccccc3c2)NC(=O)[C@H](CC(N)=O)NC(=O)[C@H](CN2CCOCC2)NC1=O [compound 261, Ac-W-T-I-C(3)-[3-(1-morpholinyl)-Ala]-N-(2Nal)-H-D-C(3)-W-P-[D-Lys(DOTA)]-NH2] (Ac-WTIC[Ala(morpholin-4-yl)]N[2Nal]HDCWP[dK](DOTA)-NH2; disulfide 4-10) | A (%≤25) | B (25<%≤50) | < 1 | C (0 < % IA/g ≤ 10 in kidney) | A (0 < % IA/g ≤ 5 in tumor) |
| CC[C@H](C)[C@H](NC(=O)[C@@H](NC(=O)[C@H](Cc1c[nH]c2ccccc12)NC(C)=O)[C@@H](C)O)C(=O)N[C@H]1CSSC[C@@H](C(=O)N[C@@H](Cc2c[nH]c3ccccc23)C(=O)N2CCC[C@H]2C(=O)N[C@H](CCCCNC(=O)CN2CCN(CC(=O)O)CCN(CC(=O)O)CCN(CC(=O)O)CC2)C(N)=O)NC(=O)[C@H](CC(=O)O)NC(=O)[C@H](Cc2cnc[nH]2)NC(=O)[C@H](Cc2ccc3ccccc3c2)NC(=O)[C@H](CC(N)=O)NC(=O)[C@H](Cc2cccnc2)NC1=O [compound 263, Ac-W-T-I-C(3)-(3Pya)-N-(2Nal)-H-D-C(3)-W-P-[D-Lys(DOTA)]-NH2] (Ac-WTIC[3Pal]N[2Nal]HDCWP[dK](DOTA)-NH2; disulfide 4-10) | A (%≤25) | B (25<%≤50) | < 1 | C (0 < % IA/g ≤ 10 in kidney) | A (0 < % IA/g ≤ 5 in tumor) |
| CC[C@H](C)[C@H](NC(=O)[C@@H](NC(=O)[C@H](Cc1c[nH]c2ccccc12)NC(C)=O)[C@@H](C)O)C(=O)N[C@H]1CSSC[C@@H](C(=O)N[C@@H](Cc2c[nH]c3ccccc23)C(=O)N2CCC[C@H]2C(=O)N[C@H](CCCCNC(=O)CN2CCN(CC(=O)O)CCN(CC(=O)O)CCN(CC(=O)O)CC2)C(N)=O)NC(=O)[C@H](CC(=O)O)NC(=O)[C@H](Cc2cnc[nH]2)NC(=O)[C@H](Cc2ccc3ccccc3c2)NC(=O)[C@H](CC(N)=O)NC(=O)[C@H](Cc2ccncc2)NC1=O [compound 264, Ac-W-T-I-C(3)-(4Pya)-N-(2Nal)-H-D-C(3)-W-P-[D-Lys(DOTA)]-NH2] (Ac-WTIC[4Pal]N[2Nal]HDCWP[dK](DOTA)-NH2; disulfide 4-10) | A (%≤25) | B (25<%≤50) | < 1 | C (0 < % IA/g ≤ 10 in kidney) | A (0 < % IA/g ≤ 5 in tumor) |
